Laboratory results reported in PubChem BioAssay (NCI).
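Where inhibition never reached the appropriate level, the endpoint shown equals the highest concentration tested. Otherwise, values were interpolated linearly from a five-concentration, 48-hour dose response in 96-well plates. TGI marks complete inhibition of growth.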

Legend:
Assay in all cases: NCI tumour cell line growth inhibition, 48 h
A498 renal = system: A498 renal
A549 NSCLC = system: A549 NSCLC
CAKI-1 renal = system: CAKI-1 renal
CCRF-CEM leukemia = system: CCRF-CEM leukemia
COLO 205 colon = system: COLO 205 colon
DLD-1 colon = system: DLD-1 colon
DMS 273 small cell lung = system: DMS 273 small cell lung
EKVX NSCLC = system: EKVX NSCLC
HCC-2998 colon = system: HCC-2998 colon
HCT-116 colon = system: HCT-116 colon
HCT-15 colon = system: HCT-15 colon
HOP-18 NSCLC = system: HOP-18 NSCLC
HOP-62 NSCLC = system: HOP-62 NSCLC
HOP-92 NSCLC = system: HOP-92 NSCLC
HT29 colon = system: HT29 colon
IGROV1 ovarian = system: IGROV1 ovarian
K-562 leukemia = system: K-562 leukemia
KM12 colon = system: KM12 colon
LOX IMVI melanoma = system: LOX IMVI melanoma
M19-MEL melanoma = system: M19-MEL melanoma
MALME-3M melanoma = system: MALME-3M melanoma
MCF7 breast = system: MCF7 breast
MOLT-4 leukemia = system: MOLT-4 leukemia
NCI-H226 lung = system: NCI-H226 lung
NCI-H23 lung = system: NCI-H23 lung
NCI-H460 lung = system: NCI-H460 lung
NCI-H522 lung = system: NCI-H522 lung
NCI/ADR-RES ovarian = system: NCI/ADR-RES ovarian
OVCAR-3 ovarian = system: OVCAR-3 ovarian
OVCAR-4 ovarian = system: OVCAR-4 ovarian
OVCAR-5 ovarian = system: OVCAR-5 ovarian
OVCAR-8 ovarian = system: OVCAR-8 ovarian
P388 leukemia = system: P388 leukemia
P388/ADR leukemia = system: P388/ADR leukemia
RPMI-8226 leukemia = system: RPMI-8226 leukemia
RXF 393 renal = system: RXF 393 renal
SF-268 CNS = system: SF-268 CNS
SF-295 CNS = system: SF-295 CNS
SF-539 CNS = system: SF-539 CNS
SK-MEL-2 melanoma = system: SK-MEL-2 melanoma
SK-MEL-28 melanoma = system: SK-MEL-28 melanoma
SK-MEL-5 melanoma = system: SK-MEL-5 melanoma
SK-OV-3 ovarian = system: SK-OV-3 ovarian
SN12C renal = system: SN12C renal
SN12K1 renal = system: SN12K1 renal
SNB-19 CNS = system: SNB-19 CNS
SNB-75 CNS = system: SNB-75 CNS
SNB-78 CNS = system: SNB-78 CNS
SW-620 colon = system: SW-620 colon
U251 CNS = system: U251 CNS
UACC-257 melanoma = system: UACC-257 melanoma
UACC-62 melanoma = system: UACC-62 melanoma
UO-31 renal = system: UO-31 renal
XF 498 CNS = system: XF 498 CNS
786-0 renal = system: 786-0 renal
ACHN renal = system: ACHN renal
DMS 114 small cell lung = system: DMS 114 small cell lung
HL-60(TB) leukemia = system: HL-60(TB) leukemia
KM20L2 colon = system: KM20L2 colon
LXFL 529 NSCLC = system: LXFL 529 NSCLC
M14 melanoma = system: M14 melanoma
RXF-631 renal = system: RXF-631 renal
SR leukemia = system: SR leukemia
TK-10 renal = system: TK-10 renal

CC1=CC2=C(C=O)C(=O)[C@](C)(O)[C@@H](O)C2=CO1
TGI (A498 renal): 73.5 µM | TGI (A549 NSCLC): > 90.8 µM | TGI (CAKI-1 renal): > 100 µM | TGI (CCRF-CEM leukemia): 59.3 µM | TGI (COLO 205 colon): > 82 µM | TGI (DLD-1 colon): > 100 µM | TGI (DMS 273 small cell lung): > 90.2 µM | TGI (EKVX NSCLC): > 100 µM | TGI (HCC-2998 colon): > 61.5 µM | TGI (HCT-116 colon): > 59.9 µM | TGI (HCT-15 colon): > 100 µM | TGI (HOP-18 NSCLC): > 92.7 µM | TGI (HOP-62 NSCLC): 69 µM | TGI (HOP-92 NSCLC): > 100 µM | TGI (HT29 colon): > 100 µM | TGI (IGROV1 ovarian): > 100 µM | TGI (K-562 leukemia): > 90.9 µM | TGI (KM12 colon): > 100 µM | TGI (LOX IMVI melanoma): > 74.3 µM | TGI (M19-MEL melanoma): > 73.5 µM | TGI (MALME-3M melanoma): > 70.2 µM | TGI (MCF7 breast): > 100 µM | TGI (MOLT-4 leukemia): 41.3 µM | TGI (NCI-H226 lung): 65.4 µM | TGI (NCI-H23 lung): > 100 µM | TGI (NCI-H460 lung): > 100 µM | TGI (NCI-H522 lung): 38.5 µM | TGI (NCI/ADR-RES ovarian): > 100 µM | TGI (OVCAR-3 ovarian): 5.58 µM | TGI (OVCAR-4 ovarian): > 100 µM | TGI (OVCAR-5 ovarian): > 100 µM | TGI (OVCAR-8 ovarian): > 100 µM | TGI (P388 leukemia): 35.5 µM | TGI (P388/ADR leukemia): 33.8 µM | TGI (RPMI-8226 leukemia): 47.1 µM | TGI (RXF 393 renal): 52.3 µM | TGI (SF-268 CNS): > 69.4 µM | TGI (SF-295 CNS): > 100 µM | TGI (SF-539 CNS): 97.5 µM | TGI (SK-MEL-2 melanoma): 62.2 µM | TGI (SK-MEL-28 melanoma): > 78.1 µM | TGI (SK-MEL-5 melanoma): 68.1 µM | TGI (SK-OV-3 ovarian): 76.3 µM | TGI (SN12C renal): > 100 µM | TGI (SN12K1 renal): > 100 µM | TGI (SNB-19 CNS): 5.5 µM | TGI (SNB-75 CNS): > 100 µM | TGI (SNB-78 CNS): > 100 µM | TGI (SW-620 colon): > 77.6 µM | TGI (U251 CNS): > 76.8 µM | TGI (UACC-257 melanoma): > 100 µM | TGI (UACC-62 melanoma): 71.5 µM | TGI (UO-31 renal): 43.8 µM | TGI (XF 498 CNS): > 100 µM

Cc1ccccc1-c1cc(=O)c2cc(C)c(C)c(C(=O)O)c2o1
TGI (786-0 renal): > 100 µM | TGI (A549 NSCLC): > 100 µM | TGI (ACHN renal): > 100 µM | TGI (CAKI-1 renal): > 100 µM | TGI (CCRF-CEM leukemia): > 100 µM | TGI (COLO 205 colon): > 100 µM | TGI (DLD-1 colon): > 100 µM | TGI (DMS 114 small cell lung): > 100 µM | TGI (DMS 273 small cell lung): > 100 µM | TGI (EKVX NSCLC): > 100 µM | TGI (HCC-2998 colon): > 100 µM | TGI (HCT-116 colon): > 100 µM | TGI (HCT-15 colon): > 100 µM | TGI (HL-60(TB) leukemia): > 100 µM | TGI (HOP-18 NSCLC): > 100 µM | TGI (HOP-62 NSCLC): > 100 µM | TGI (HOP-92 NSCLC): > 100 µM | TGI (HT29 colon): > 100 µM | TGI (IGROV1 ovarian): > 100 µM | TGI (K-562 leukemia): > 100 µM | TGI (KM12 colon): > 100 µM | TGI (KM20L2 colon): > 100 µM | TGI (LOX IMVI melanoma): > 100 µM | TGI (LXFL 529 NSCLC): > 100 µM | TGI (M14 melanoma): > 100 µM | TGI (M19-MEL melanoma): > 100 µM | TGI (MALME-3M melanoma): > 100 µM | TGI (MOLT-4 leukemia): > 100 µM | TGI (NCI-H226 lung): > 100 µM | TGI (NCI-H23 lung): > 100 µM | TGI (NCI-H460 lung): > 100 µM | TGI (NCI-H522 lung): > 100 µM | TGI (OVCAR-3 ovarian): > 100 µM | TGI (OVCAR-4 ovarian): > 100 µM | TGI (OVCAR-5 ovarian): > 100 µM | TGI (OVCAR-8 ovarian): > 100 µM | TGI (RPMI-8226 leukemia): > 100 µM | TGI (RXF-631 renal): > 100 µM | TGI (SF-295 CNS): > 100 µM | TGI (SF-539 CNS): > 100 µM | TGI (SK-MEL-2 melanoma): > 100 µM | TGI (SK-MEL-28 melanoma): > 100 µM | TGI (SK-MEL-5 melanoma): > 100 µM | TGI (SK-OV-3 ovarian): > 100 µM | TGI (SN12C renal): > 100 µM | TGI (SNB-19 CNS): > 100 µM | TGI (SNB-75 CNS): > 100 µM | TGI (SNB-78 CNS): > 100 µM | TGI (SR leukemia): > 100 µM | TGI (SW-620 colon): > 100 µM | TGI (TK-10 renal): > 100 µM | TGI (U251 CNS): > 100 µM | TGI (UACC-257 melanoma): > 100 µM | TGI (UACC-62 melanoma): > 100 µM | TGI (UO-31 renal): > 100 µM | TGI (XF 498 CNS): > 100 µM
